Laboratory results: patent publication US10450549B2, “Aryloxyphenoxypropionate tolerance in turfrgass species and use of AAD1 as a selectable marker” (Dow AgroSciences, LLC, priority 2004, dated 2019)
Like-named read-outs stand apart in the source and are kept apart here.

Key:
[1] = test system: Arabidopsis thaliana var. Columbia; experiment: Arabidopsis plate test bioassay for herbicide degradation; assay type: in vivo; conditions: for IC50: Arabidopsis thaliana, 168 h
[2] = test system: transformed-control line containing PAT and Cry1F; experiment: Foliar-applied auxinic herbicides on control (PAT/Cry1F, wildtype) Arabidopsis, % injury 14 DAT; assay type: in vivo, Arabidopsis thaliana; conditions: PatCry1f - Control
Summary of the method: (§1)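 Homozygous T4 AAD1 (v3) Arabidopsis (line AAD1.01.315.076) and a PAT/Cry1F transformed control were grown in pots and track-sprayed foliarly at 187 L/ha with herbicides formulated in 200 mM Hepes pH 7.5. Injury was rated 14 days after treatment, with 3-4 replicates averaged over two experiments.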

[3] = test system: wt ARBTH; experiment: In vitro plate test of herbicide cross resistance: wild-type Arabidopsis; assay type: in vivo, Arabidopsis thaliana; conditions: 7 days
Method: (§2) The ability of AAD1 (v3) to provide resistance to other aryloxyphenoxyalkanoate herbicides in transgenic Arabidopsis was determined using a modified in vitro plate assay. Seeds from wild-type Arabidopsis thaliana as well as Arabidopsis thaliana containing the plant optimized AAD1 (v3) gene (T4 homozygous plants id=PAAD1.315.064) were sterilized by agitating for 10 min in a 50% bleach solution. These seeds were then rinsed four times with sterile water to remove the bleach.
(§3) Dose response assays utilized a nutrient media (see below) supplemented with various rates of test compounds. The test compounds were added to the heated media (55° C.) as concentrated solutions in DMSO. Control wells had the appropriate amount of DMSO without any additional compound. The final concentration of DMSO never exceeded 1% (v/v). After thorough mixing, a 6 mL aliquot of the warm media containing the appropriate concentration of compound was added to each well of a 6-well, flat bottom, polystyrene tissue culture tray (Falcon 353046, Becton Dickson and Company, Franklin Lakes, N.J.). After the media solidified, approximately 20 to 30 Arabidopsis seeds were applied on top of the solidified media and the remaining 2 mL of media was poured over the seeds. The plates were lightly agitated to disperse the seeds, covered and allowed to cool until the media had completely solidified. The plates were incubated for 7 days at 25° C. under continual fluorescent lighting (75 μE m^−2 s^−1). Nutrient Media Composition was as described in Example 2.2 and in Somerville and Orgen (1982).
(§4) Assessment of Growth Reduction. The apical portion of the Arabidopsis plants grown in the treated media was assessed visually relative to the apical portion of the plants grown in the media containing only DMSO. Values were recorded as % growth reduction. Assessments of root growth inhibition of the Arabidopsis plants grown in the treated media were achieved by carefully extracting the plants from the media and measuring the length of the root. These root lengths were then compared to the root length of the control plants to determine a % growth reduction. A minimum of five plants were assessed for each treatment. The values recorded are an average of all the plants assessed. The calculated concentration to reach 50% inhibition effect (I50) were determined for both root and shoots of wildtype and AAD1-transformed Arabidopsis. The ratios of resistant to sensitive biotypes are included in Table 19. A ratio>2 for both root and shoot measurements generally signifies significant resistance. The higher the ratio, the greater the level of resistance. […] The broad phenoxy auxin resistance is the first reported in planta.

[4] = test system: PAAD1.315.064 ARBTH; experiment: In vitro plate test of herbicide cross resistance: homozygous T4 AAD1 (v3) Arabidopsis; assay type: in vivo, Arabidopsis thaliana
Method: as §2, §3, §4

[5] = test system: T4 Arabidopsis homozygous for AAD1 (v3) (line AAD1.01.315.076); experiment: Foliar-applied auxinic herbicides on homozygous T4 AAD1 (v3) Arabidopsis, % injury 14 DAT; assay type: in vivo, Arabidopsis thaliana; conditions: AAD1.01.315.076.T4 homozygous AAD1 plants
Summary of the method: as §1

[6] = target: T1, AAD1 (v1) (Sphingobium herbicidovorans, UniProt Q8KSC8); experiment: HPLC analysis of herbicide degradation by AAD1 (v1) cell extract; assay type: biochemical; conditions: AAD1 (v1) cell extract, same conditions as 2,4-D
T1 construct: made in house; host or cells: E. coli BL-21 Star (DE3), plasmid pDAB3203

[7] = test system: Non-transformed Hi-II callused suspension tissue; experiment: Dose response of non-transformed maize callus tissue; assay type: cell-based
[8] = test system: DAS Soybean cell suspensions; experiment: Glufosinate selection of soybean suspension cells; assay type: cell-based
Method: The DAS Soybean cell suspensions were cultured on a 3 d cycle with 10 ml of settled suspension volume transferred to 115 ml of fresh liquid medium. Settled cell volume was determined by allowing the cell suspension to settle for 2 min in the 125-mL flask after vigorous swirling and then drawing cells from the bottom of the flask with a wide bore 10 ml pipette. The flasks were then transferred to orbital shakers at 140 rpm.
Aliquots of 4 ml of the suspension cells at 0.72 OD^600 was transferred along with 200 μM acetosyringone (AS) onto a 100×25 sterile Petri plate. EHA105 Agrobacterium suspension at a density of 1.2 OD^650 in a 100 μL volume was added and mixed well. The Agrobacterium and suspension cell mixture was swirled well and the plate was transferred to dark growth chamber where the temperature was maintained at 25° C.
13.2.1—Selection of soybean suspension cells and isolation of transformed colonies. After 4 days of co-cultivation the plate was swirled again to mix the suspension well and a 1.5 ml aliquot was transferred to the selection medium and spread on the gel medium on a 100×15 ml Petri-plate. […] After a 10 min drying in the hood the plates were incubated for 4 weeks in dark at 28° C. Colonies appeared in selection and a total of 11 colonies were transferred to fresh medium from 3 different experiments and maintained for 3-4 months. […]

[9] = resistant to sensitive biotype, >2 signifies resistance

T1 sequence (Q8KSC8 whole entry): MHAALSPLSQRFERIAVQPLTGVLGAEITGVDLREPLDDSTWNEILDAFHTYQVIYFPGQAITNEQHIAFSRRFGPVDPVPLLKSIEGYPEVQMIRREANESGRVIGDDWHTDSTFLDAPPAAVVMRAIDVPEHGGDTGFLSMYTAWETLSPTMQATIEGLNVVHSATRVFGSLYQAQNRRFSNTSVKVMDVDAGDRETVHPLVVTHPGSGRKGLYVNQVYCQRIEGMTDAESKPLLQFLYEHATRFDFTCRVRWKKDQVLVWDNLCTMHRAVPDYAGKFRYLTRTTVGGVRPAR

Structure (SMILES): O=C(O)COc1nc(Cl)c(Cl)cc1Cl [Triclopyr]
- IC50 ([1]; AAD1 (v1)-expressing lysate, nominal concentration, read-out: GR50, Chemical + AAD1 v1): 1000 nM
- IC50 ([1]; root length, 7 days, read-out: GR50, Chemical alone): 255 nM
- GR50 ratio ([1]; enzyme-expressing lysate vs blank vector, ≥ 2 = threshold for activity loss): 1
- Ave % Injury 14DAT ([2]; 50 g ae/ha foliar): 36%
- Ave % Injury 14DAT ([2]; 200 g ae/ha foliar): 65%
- Ave % Injury 14DAT ([2]; 800 g ae/ha foliar): 84%
- Ave % Injury 14DAT ([2]; 3200 g ae/ha foliar): 95%
- wt ARBTH root 150 ([3]; root): 0.02 ppm
- wt ARBTH shoot 150 ([3]; shoot): 0.2 ppm
- root ratio [4, 9]: 1
- shoot ratio [4, 9]: 0.2
- resistance afforded by AAD1 (v3) in plate test ([4]; root and shoot assessment): did not effectively protect
- PAAD1.315.064 ARBTH root 150 ([4]; root, 7 days): 0.02 ppm
- PAAD1.315.064 T3 ARBTH shoot 150 ([4]; shoot, 7 days): 0.04 ppm
- Ave % Injury 14DAT ([5]; 50 g ae/ha foliar): 31%
- Ave % Injury 14DAT ([5]; 200 g ae/ha foliar): 58%
- Ave % Injury 14DAT ([5]; 800 g ae/ha foliar): 74%
- Ave % Injury 14DAT ([5]; 3200 g ae/ha foliar): 97%
- enzyme activity on substrate (HPLC) [6]: No enzyme activity was detected

Structure (SMILES): N#Cc1ccc(Oc2ccc(O)cc2)c(F)c1 [cyhalofop phenol]
- callus growth relative to control without cyhalofop phenol ([7]; 1 μM): 76%

Structure (SMILES): CP(=O)(O)CCC(N)C(=O)O (centres unmarked) [glufosinate ammonium]
- response of non-transformed suspension cells ([8]; 0.5 mg/l): sensitive
- response of transformed colonies ([8]; 5 mg/L (5× concentration), up to 4 months): resistant

Structure (SMILES): Oc1ccc(Oc2ncc(C(F)(F)F)cc2Cl)cc1 [haloxyfop phenol]
- callus growth relative to control lacking haloxyfop phenol ([7]; 300 nM): equal to or greater than the control
